# Like-named read-outs stand apart in the source and are kept apart here.
# Columns and labels:
# [1] = biological target: T1, human norepinephrine transporter (Homo sapiens, UniProt P23975); experiment: hNET Receptor Binding ([125I]-RTI-55 displacement, HEK-293 membranes)
# T1 construct: expressed in transfected cells; host or cells: HEK-293
# Protocol: (§1) Cell pastes of HEK-293 cells transfected with a human norepinephrine transporter cDNA were prepared. The cell pastes were resuspended in 400 to 700 mL of Krebs-HEPES assay buffer (25 mM HEPES, 122 mM NaCl, 3 mM KCl, 1.2 mM MgSO4, 1.3 mM CaCl2, and 11 mM glucose, pH 7.4) with a Polytron homogenizer at setting 7 for 30 seconds. Aliquots of membranes (5 mg/mL protein) were stored in liquid nitrogen until used.
# The binding assay was set up in Beckman deep-well polypropylene plates with a total volume of 250 μL containing: compound of one of the Examples (10^−5M to 10^−12M), cell membranes, and 50 pM [^125I]-RTI-55 (Perkin Elmer, NEX-272; specific activity 2200 Ci/mmol). The reaction was incubated by gentle agitation for 90 minutes at room temperature and was terminated by filtration through Whatman GF/C filter plates using a Brandel 96-well plate harvester. Scintillation fluid (100 μL) was added to each well, and bound [^125I]-RTI-55 was determined using a Wallac Trilux Beta Plate Counter. Test compounds were run in duplicate, and specific binding was defined as the difference between binding in the presence and absence of 10 μM desipramine.
# (§2) Excel and GraphPad Prism software were used for data calculation and analysis. IC50 values were converted to Ki values using the Cheng-Prusoff equation.
# [2] = biological target: T2, human serotonin transporter (Homo sapiens, UniProt P31645); experiment: hSERT Receptor Binding ([125I]-RTI-55 displacement, HEK-293 membranes)
# T2 construct: expressed in transfected cells; host or cells: HEK-293
# T2 sequence (P31645 whole entry): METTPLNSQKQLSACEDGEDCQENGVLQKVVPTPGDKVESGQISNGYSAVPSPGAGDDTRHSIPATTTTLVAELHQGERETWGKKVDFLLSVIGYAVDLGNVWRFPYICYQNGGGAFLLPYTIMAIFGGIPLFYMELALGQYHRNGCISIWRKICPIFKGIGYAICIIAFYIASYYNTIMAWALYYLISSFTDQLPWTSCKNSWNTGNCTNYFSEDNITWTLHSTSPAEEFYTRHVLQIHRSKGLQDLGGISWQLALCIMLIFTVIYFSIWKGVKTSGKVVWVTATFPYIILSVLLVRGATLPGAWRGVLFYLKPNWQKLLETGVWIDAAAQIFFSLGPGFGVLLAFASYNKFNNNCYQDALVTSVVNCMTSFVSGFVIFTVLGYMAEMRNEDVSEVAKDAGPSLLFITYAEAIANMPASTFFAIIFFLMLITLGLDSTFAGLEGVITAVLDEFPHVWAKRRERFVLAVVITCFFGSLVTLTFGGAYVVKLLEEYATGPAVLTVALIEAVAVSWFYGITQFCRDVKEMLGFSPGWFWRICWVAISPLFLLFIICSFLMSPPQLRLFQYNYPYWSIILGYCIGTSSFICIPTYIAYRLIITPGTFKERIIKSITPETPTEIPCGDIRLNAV
# Protocol: as §1, with “serotonin” for “norepinephrine”, “Setting” for “setting”, “(about 2.5” for “(5”
# Assays were set up in FlashPlates pre-coated with 0.1 % PEI in a total volume of 250 μL containing: compound of one of the Examples (10^−5M to 10^−12M), cell membanes, and 50 pM [^125l]-RTI-55 (Perkin Elmer, NEX-272; specific activity 2200 Ci/mmol). The reaction was incubated and gently agitated for 90 minutes at room temperature, and terminated by removal of assay volume. Plates were covered, and bound [^125I]-RTI-55 was determined using a Wallac Trilux Beta Plate Counter. Test compounds were run in duplicate, and specific binding was defined as the difference between binding in the presence and absence of 10 μM citalopram.
# as §2
# [3] = hNET, HEK-293 cell membranes, 50 pM [125I]-RTI-55, Ki from IC50 by Cheng-Prusoff, read-out: NET Ki
# [4] = hSERT, HEK-293 cell membranes, 50 pM [125I]-RTI-55, Ki from IC50 by Cheng-Prusoff, read-out: SERT Ki
# T1 sequence (P23975 whole entry): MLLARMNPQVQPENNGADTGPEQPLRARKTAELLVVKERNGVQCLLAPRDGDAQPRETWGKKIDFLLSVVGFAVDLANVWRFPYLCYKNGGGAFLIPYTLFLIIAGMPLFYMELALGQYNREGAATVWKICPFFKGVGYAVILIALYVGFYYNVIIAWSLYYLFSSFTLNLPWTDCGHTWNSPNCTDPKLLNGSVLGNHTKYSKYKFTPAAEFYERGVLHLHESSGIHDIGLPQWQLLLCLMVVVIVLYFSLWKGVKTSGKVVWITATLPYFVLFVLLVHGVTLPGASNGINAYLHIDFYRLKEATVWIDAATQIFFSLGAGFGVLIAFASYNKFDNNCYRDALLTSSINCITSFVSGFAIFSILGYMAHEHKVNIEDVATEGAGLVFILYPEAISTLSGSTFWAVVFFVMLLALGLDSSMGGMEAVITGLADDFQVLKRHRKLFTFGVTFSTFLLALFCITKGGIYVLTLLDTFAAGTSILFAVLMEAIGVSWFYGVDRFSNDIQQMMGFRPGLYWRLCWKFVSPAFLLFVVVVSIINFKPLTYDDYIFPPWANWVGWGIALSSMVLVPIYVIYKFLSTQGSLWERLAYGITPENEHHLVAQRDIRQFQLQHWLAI
Structure (SMILES),"Ki [1, 3] [nM]","Ki [2, 4] [nM]",Ki [1] [nM],Ki [2] [nM]
"CCOc1ncccc1OC[C@@H]1CNCC[C@H]1c1ccc(F)cc1 (racemic) [Example 58, (±)-trans-2-Ethoxy-3-[4-(4-fluoro-phenyl)-piperidin-3-ylmethoxy]-pyridine]",,,6.25,5.97
"CCOc1ncccc1OC[C@@H]1CNCC[C@H]1c1cccc(F)c1 (racemic) [Example 59, (±)-trans-2-Ethoxy-3-[4-(3-fluoro-phenyl)-piperidin-3-ylmethoxy]-pyridine]",4.38,10.7,,
"CCCCc1ncccc1OC[C@@H]1CNCC[C@H]1c1ccccc1 (racemic) [Example 61, (±)-trans-2-Butyl-3-(4-phenyl-piperidin-3-ylmethoxy)-pyridine]",7.48,23.8,,
"CCOc1ccccc1OC[C@@H]1CNCC[C@H]1c1ccccc1 (relative stereo) [Example 48, trans-3-(2-Ethoxy-phenoxymethyl)-4-phenyl-piperidine]",2.1,,,
"CC(C)c1ccccc1OC[C@@H]1CNCC[C@H]1c1ccccc1 (relative stereo) [Example 49, trans-3-(2-lsopropyl-phenoxymethyl)-4-phenyl-piperidine]",19.5,83.5,,
"c1ccc([C@@H]2CCNC[C@H]2COc2ccccc2C2CCCCC2)cc1 (relative stereo) [Example 51, trans-3-(2-Cyclohexyl-phenoxymethyl)-4-phenyl-piperidine]",75,174,,
"CCOc1ncccc1OC[C@@H]1CNCC[C@@H]1c1ccc(F)cc1 (single isomer, unassigned) [Example 57, (+)-cis-2-Ethoxy-3-[4-(4-fluoro-phenyl)-piperidin-3-ylmethoxy]-pyridine]",,,193,34.8
"Cc1ccc(OC[C@H]2CNCC[C@@H]2c2ccccc2)nc1 [Example 5, (3R,4S)-5-Methyl-2-(4-phenyl-piperidin-3-ylmethoxy)-pyridine]",2620,2.29,,
"CCCOc1ncccc1OC[C@H]1CNCC[C@@H]1c1ccccc1 [Example 8, (3R,4S)-3-(4-Phenyl-piperidin-3-ylmethoxy)-2-propoxy-pyridine]",1330,17,,
"COCCOc1ncccc1OC[C@H]1CNCC[C@@H]1c1ccccc1 [Example 10, (3R,4S)-2-(2-Methoxy-ethoxy)-3-(4-phenyl-piperidin-3-ylmethoxy)-pyridine]",6260,18.5,,
"Cn1nc(OC[C@H]2CNCC[C@@H]2c2ccccc2)cc1C(F)(F)F [Example 13, (3R,4S)-3-(1-Methyl-5-trifluoromethyl-1 H-pyrazol-3-yloxymethyl)-4-phenyl-piperidine]",612,2.69,,
"CC(C)COc1ncccc1OC[C@@H]1CNCC[C@H]1c1ccccc1 [Example 15, (3S,4R)-2-lsobutoxy-3-(4-phenyl-piperidin-3-ylmethoxy)-pyridine]",4.9,20.7,,
"FC(F)(F)c1ccc(OC[C@@H]2CNCC[C@H]2c2ccccc2)nc1 [Example 19, (3S,4R)-2-(4-Phenyl-piperidin-3-ylmethoxy)-5-trifluoromethyl-pyridine]",144,29.1,,
"Cn1nc(C(F)(F)F)cc1OC[C@@H]1CNCC[C@H]1c1ccccc1 [Example 21, (3S,4R)-3-(2-Methyl-5-trifluoromethyl-2H-pyrazol-3-yloxymethyl)-4-phenyl-piperidine]",1260,63.8,,
"COCc1cc(OC[C@@H]2CNCC[C@H]2c2ccccc2)[nH]n1 [Example 23, (3S,4R)-3-(5-Methoxymethyl-2H-pyrazol-3-yloxymethyl)-4-phenyl-piperidine]",1520,1390,,

# The next lines start with results.
"Ki [1, 3] [nM]","Ki [2, 4] [nM]",Structure (SMILES),Ki [1] [nM],Ki [2] [nM]
46.6,59.2,"CC(C)Cc1ncccc1OC[C@@H]1CNCC[C@H]1c1ccccc1 (racemic) [Example 62, (±)-trans-2-lsobutyl-3-(4-phenyl-piperidin-3-ylmethoxy)-pyridine]",,
51.5,1050,"c1ccc(-c2ccccc2OC[C@@H]2CNCC[C@H]2c2ccccc2)cc1 (relative stereo) [Example 47, trans-3-(Biphenyl-2-yloxymethyl)-4-phenyl-piperidine]",,
16,33,"CCCc1ccccc1OC[C@@H]1CNCC[C@H]1c1ccccc1 (relative stereo) [Example 50, trans-4-Phenyl-3-(2-propyl-phenoxymethyl)-piperidine]",,
35,96,"CCOc1ccccc1OC[C@@H]1CNCC[C@@H]1c1ccccc1 (relative stereo) [Example 52, cis-3-(2-Ethoxy-phenoxymethyl)-4-phenyl-piperidine]",,
138,267,"CCCc1ccccc1OC[C@@H]1CNCC[C@@H]1c1ccccc1 (relative stereo) [Example 53, cis-4-Phenyl-3-(2-propyl-phenoxymethyl)-piperidine]",,
36.5,208,"CC(C)c1ccccc1OC[C@@H]1CNCC[C@@H]1c1ccccc1 (relative stereo) [Example 54, cis-3-(2-lsopropyl-phenoxymethyl)-4-phenyl-piperidine]",,
215,1050,"c1ccc(-c2ccccc2OC[C@@H]2CNCC[C@@H]2c2ccccc2)cc1 (relative stereo) [Example 55, cis-3-(Biphenyl-2-yloxymethyl)-4-phenyl-piperidine]",,
317,542,"c1ccc([C@H]2CCNC[C@H]2COc2ccccc2C2CCCCC2)cc1 (relative stereo) [Example 56, cis-3-(2-Cyclohexyl-phenoxymethyl)-4-phenyl-piperidine]",,
1260,18.8,"CCOc1ccccc1OC[C@H]1CNCC[C@@H]1c1ccccc1 [Example 3, (3R,4S)-3-(2-Ethoxy-phenoxymethyl)-4-phenyl-piperidine]",,
1870,15.3,"FC(F)(F)c1ccc(OC[C@H]2CNCC[C@@H]2c2ccccc2)nc1 [Example 4, (3R,4S)-2-(4-Phenyl-piperidin-3-ylmethoxy)-5-trifluoromethyl-pyridine]",,
3480,0.52,"COc1ncccc1OC[C@H]1CNCC[C@@H]1c1ccccc1 [Example 6, (3R,4S)-2-Methoxy-3-(4-phenyl-piperidin-3-ylmethoxy)-pyridine]",,
293,680,"c1ccc([C@@H]2CCNC[C@H]2COc2cccnc2OC2CCOCC2)cc1 [Example 16, (3S,4R)-3-(4-Phenyl-piperidin-3-ylmethoxy)-2-(tetrahydro-pyran-4-yloxy)-pyridine]",,
1.75,,"CCOc1ccccc1OC[C@@H]1CNCC[C@H]1c1ccccc1 [Example 18, (3S,4R)-3-(2-Ethoxy-phenoxymethyl)-4-phenyl-piperidine]",,
157,3.14,"Cc1ccc(OC[C@@H]2CNCC[C@H]2c2ccccc2)nc1 [Example 20, (3S,4R)-5-Methyl-2-(4-phenyl-piperidin-3-ylmethoxy)-pyridine]",,
263,3.47,"Cc1ccc(OC[C@@H]2CNCC[C@H]2c2ccccc2)cn1 [Example 22, (3S,4R)-2-Methyl-5-(4-phenyl-piperidin-3-ylmethoxy)-pyridine]",,
519,87.7,"Cn1nc(OC[C@@H]2CNCC[C@H]2c2ccccc2)cc1C(F)(F)F [Example 24, (3S,4R)-3-(1-Methyl-5-trifluoromethyl-1 H-pyrazol-3-yloxymethyl)-4-phenyl-piperidine]",,
107,2.49,"N#Cc1cccc(OC[C@@H]2CNCC[C@H]2c2ccccc2)c1 [Example 25, (3S,4R)-3-(4-Phenyl-piperidin-3-ylmethoxy)-benzonitrile]",,
73.3,21.5,"N#Cc1ccc(OC[C@@H]2CNCC[C@H]2c2ccccc2)cc1 [Example 26, (3S,4R)-4-(4-Phenyl-piperidin-3-ylmethoxy)-benzonitrile]",,
≥ 10000,5230,"CC(C)c1cc(C(N)=O)cc(C(C)C)c1OC[C@@H]1CNCC[C@H]1c1ccccc1 [Example 27, (3S,4R)-3,5-Diisopropyl-4-(4-phenyl-piperidin-3-ylmethoxy)-benzamide]",,
6380,2130,"Cc1nccnc1OC[C@@H]1CNCC[C@H]1c1ccccc1 [Example 28, (3S,4R)-2-Methyl-3-(4-phenyl-piperidin-3-ylmethoxy)-pyrazine]",,
